Source: PubChem BioAssay (NCI)
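GI50 = concentration required for 50% inhibition of growth. TGI denotes the concentration required for complete inhibition of growth.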

Assays:
Test in all cases: NCI tumour cell line growth inhibition, 384-well format
[1] = test system: UO-31 renal
[2] = test system: NCI-H522 lung
[3] = test system: HOP-92 NSCLC
[4] = test system: MCF7 breast
[5] = test system: HT29 colon
[6] = test system: SNB-19 CNS
[7] = test system: DU-145 prostate
[8] = test system: MALME-3M melanoma
[9] = test system: IGROV1 ovarian
[10] = test system: SN12C renal
[11] = test system: MDA-MB-435 melanoma
[12] = test system: NCI-H460 NSCLC
[13] = test system: PC-3 prostate
[14] = test system: SR leukemia
[15] = test system: A498 renal
[16] = test system: NCI-H23 lung
[17] = test system: T-47D breast
[18] = test system: HOP-62 NSCLC
[19] = test system: COLO 205 colon
[20] = test system: CAKI-1 renal
[21] = test system: SF-539 CNS
[22] = test system: HS 578T breast
[23] = test system: A549 NSCLC
[24] = test system: UACC-257 melanoma
[25] = test system: UACC-62 melanoma
[26] = test system: NCI-H226 lung
[27] = test system: U251 glioblastoma
[28] = test system: KM12 colon
[29] = test system: K-562 leukemia
[30] = test system: SK-MEL-2 melanoma
[31] = test system: SK-MEL-5 melanoma
[32] = test system: 786-0 renal
[33] = test system: OVCAR-3 ovarian
[34] = test system: HCC-2998 colon
[35] = test system: SNB-75 CNS
[36] = test system: SW-620 colon
[37] = test system: LOX IMVI melanoma
[38] = test system: RPMI-8226 leukemia
[39] = test system: MDA-MB-468 breast
[40] = test system: OVCAR-8 ovarian
[41] = test system: HCT-15 colon
[42] = test system: MOLT-4 leukemia
[43] = test system: M14 melanoma
[44] = test system: NCI/ADR-RES ovarian
[45] = test system: SK-MEL-28 melanoma
[46] = test system: HL-60(TB) leukemia
[47] = test system: OVCAR-4 ovarian

Cc1ccc(S(=O)(=O)Cc2nc(-c3ccc(C(=O)NCc4cccnc4)cc3)oc2C)cc1
GI50 [1]: < 0.01 µM | TGI [1]: < 0.01 µM | GI50 [2]: < 0.01 µM | TGI [2]: < 0.01 µM | GI50 [3]: 0.022 µM | TGI [3]: 0.0526 µM | GI50 [4]: 0.0142 µM | TGI [4]: 0.0291 µM | GI50 [5]: 0.0189 µM | TGI [5]: 0.0379 µM | GI50 [6]: < 0.01 µM | TGI [6]: < 0.01 µM | GI50 [7]: 0.0159 µM | TGI [7]: 0.0308 µM | GI50 [8]: 0.0191 µM | TGI [8]: 0.0438 µM | GI50 [9]: 0.0112 µM | TGI [9]: 0.0237 µM | GI50 [10]: < 0.01 µM | TGI [10]: < 0.01 µM | GI50 [11]: 0.0132 µM | TGI [11]: 0.0261 µM | GI50 [12]: 0.0216 µM | TGI [12]: 0.0473 µM | GI50 [13]: < 0.01 µM | TGI [13]: < 0.01 µM | GI50 [14]: 0.0181 µM | TGI [14]: 0.0333 µM | GI50 [15]: 0.0569 µM | TGI [15]: 0.691 µM | GI50 [16]: < 0.01 µM | TGI [16]: 0.0202 µM | GI50 [17]: < 0.01 µM | TGI [17]: < 0.01 µM | GI50 [18]: < 0.01 µM | TGI [18]: 0.0119 µM | GI50 [19]: < 0.01 µM | TGI [19]: < 0.01 µM | GI50 [20]: < 0.01 µM | TGI [20]: 0.0155 µM | GI50 [21]: < 0.01 µM | TGI [21]: < 0.01 µM | GI50 [22]: < 0.01 µM | TGI [22]: < 0.01 µM | GI50 [23]: 0.0194 µM | TGI [23]: 0.0419 µM | GI50 [24]: 0.0275 µM | TGI [24]: 0.0596 µM | GI50 [25]: 0.0165 µM | TGI [25]: 0.0345 µM | GI50 [26]: 0.119 µM | TGI [26]: 0.602 µM | GI50 [27]: < 0.01 µM | TGI [27]: < 0.01 µM | GI50 [28]: < 0.01 µM | TGI [28]: 0.0119 µM | GI50 [29]: < 0.01 µM | TGI [29]: < 0.01 µM | GI50 [30]: < 0.01 µM | TGI [30]: < 0.01 µM | GI50 [31]: < 0.01 µM | TGI [31]: 0.0208 µM | GI50 [32]: < 0.01 µM | TGI [32]: 0.0161 µM | GI50 [33]: < 0.01 µM | TGI [33]: < 0.01 µM | GI50 [34]: < 0.01 µM | TGI [34]: < 0.01 µM | GI50 [35]: 0.0239 µM | TGI [35]: 0.0532 µM | GI50 [36]: < 0.01 µM | TGI [36]: < 0.01 µM | GI50 [37]: 0.0171 µM | TGI [37]: 0.0787 µM | GI50 [38]: < 0.01 µM | TGI [38]: < 0.01 µM | GI50 [39]: 0.0118 µM | TGI [39]: 0.0261 µM | GI50 [40]: < 0.01 µM | TGI [40]: < 0.01 µM | GI50 [41]: < 0.01 µM | TGI [41]: 0.0163 µM | GI50 [42]: < 0.01 µM | TGI [42]: < 0.01 µM | GI50 [43]: < 0.01 µM | TGI [43]: 0.0169 µM | GI50 [44]: 0.0152 µM | TGI [44]: 0.0294 µM | GI50 [45]: 0.0172 µM | TGI [45]: 0.0343 µM | GI50 [46]: < 0.01 µM | TGI [46]: < 0.01 µM | GI50 [47]: 0.0193 µM | TGI [47]: 0.0396 µM
